In patent publication US8722849B2, “Polypeptides” (Novo Nordisk A/S, priority 2011, dated 2014):
≈ marks a conversion by molar mass, not a printed value. Where two headings read alike, the source gives them in different places. Starred links: 1 amine or outer side, 2 acyl side, 3 side chain; linkers in the order of their positions; H or OH if unused. Positions of bridges follow the written chain, without caps; N, C: chain ends. Residues, ends and D or L forms follow the SMILES beside them. Groups on a side chain read outwards from the residue. *: point of attachment. C20 diacid = O=C(O)CCCCCCCCCCCCCCCCCCC(=O)*; C18 diacid = O=C(O)CCCCCCCCCCCCCCCCC(=O)*; γGlu = O=C(O)[C@H](CCC(=O)[*:2])N[*:1]; AEEA = NCCOCCOCC(=O)O

Assays:
[1] = Assay (III) ThT fibrillation assay for physical stability; type: physicochemical; details: ThT fibrillation assay
In short: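 Freshly prepared formulations, pH-adjusted, with 1 μM ThT; four or eight replicates incubated at 37 °C under 960 rpm orbital shaking. Fluorescence (ex 444/em 485 nm) read every 20 min; […]. Peptide concentration measured by RP-HPLC before and after the run.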

[2] = Assay (IV) determination of solubility; type: physicochemical
In short: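 Stock ~500 nmol/ml in water; 1:1 with 100 mM buffer, pH 3.0–8.0 (glycylglycine ≤5.0, bistrispropane ≥6.0); 18 h RT; spin; HPLC quantitation of soluble polypeptide.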

[3] = biological target: T1, human calcitonin receptor (Homo sapiens, UniProt P30988); assay: Assay (II)a functional CRE-luciferase assay, human calcitonin receptor; type: cell-based; details: Table 7; human calcitonin (CTa) receptor
T1 construct: expressed in transfected cells; host or cells: BHK570
T1 sequence (P30988 25-474): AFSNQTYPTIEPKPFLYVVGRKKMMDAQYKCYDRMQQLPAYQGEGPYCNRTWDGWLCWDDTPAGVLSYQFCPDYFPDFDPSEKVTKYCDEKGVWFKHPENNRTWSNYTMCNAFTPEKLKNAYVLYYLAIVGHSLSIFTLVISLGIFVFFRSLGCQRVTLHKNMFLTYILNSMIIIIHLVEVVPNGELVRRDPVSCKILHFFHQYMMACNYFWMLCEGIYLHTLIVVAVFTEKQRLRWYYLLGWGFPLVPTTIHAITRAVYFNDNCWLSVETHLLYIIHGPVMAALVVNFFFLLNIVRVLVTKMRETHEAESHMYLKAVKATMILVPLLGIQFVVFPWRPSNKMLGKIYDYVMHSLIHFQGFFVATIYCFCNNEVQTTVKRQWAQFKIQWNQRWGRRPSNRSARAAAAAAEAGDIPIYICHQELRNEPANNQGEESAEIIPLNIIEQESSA

[4] = biological target: T2, human amylin receptor (amylin 3(a) receptor: human calcitonin receptor + RAMP-3) (Homo sapiens, UniProt O60896+P30988); assay: Assay (II)a functional CRE-luciferase assay, human amylin receptor; type: cell-based; details: Table 2; BHK amylin 3(a)-receptor/CRE-luc cells
T2 construct: expressed in transfected cells; host or cells: BHK570
T2 sequence (P30988 25-474): T1 sequence (P30988 25-474)
T2 sequence (O60896 24-148 partner): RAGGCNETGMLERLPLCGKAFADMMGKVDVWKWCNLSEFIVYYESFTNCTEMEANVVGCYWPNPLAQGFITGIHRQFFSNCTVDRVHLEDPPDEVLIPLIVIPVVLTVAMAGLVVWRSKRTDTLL

[5] = bistrispropane buffer, pH 6, pH 6.0, read-out: Solubility pH 6.0
[6] = bistrispropane buffer, pH 6.5, pH 6.5, read-out: Solubility pH 6.5
[7] = bistrispropane buffer, pH 7, pH 7.0, read-out: Solubility pH 7.0
[8] = bistrispropane buffer, pH 7.5, pH 7.5, read-out: Solubility pH 7.5
[9] = bistrispropane buffer, pH 8, pH 8.0, read-out: Solubility pH 8.0
[10] = glycylglycine buffer, pH 3, pH 3.0, read-out: Solubility pH 3.0
[11] = glycylglycine buffer, pH 4, pH 4.0, 18 hours at room temperature, Table 2, read-out: Solubility pH 4.0
[12] = glycylglycine buffer, pH 4, pH 4.0, read-out: Solubility pH 4.0
[13] = glycylglycine buffer, pH 5, pH 5.0, read-out: Solubility pH 5.0

| Compound | ThT pH 4.0 lag time [1] | ThT pH 4.0 lag time (h) [1] | solubility at 18 h [2, 5] | solubility at 18 h [2, 6] | solubility at 18 h [2, 7] | solubility at 18 h [2, 8] | solubility at 18 h [2, 9] | solubility at 18 h [2, 10] | solubility at 18 h [2, 11] | solubility at 18 h [2, 12] | solubility at 18 h [2, 13] | EC50 [3] | EC50 [4] | solubility at 18 h ([2]; bistrispropane buffer, pH 7, pH 7.0, 18 hours at room temperature, Table 3, read-out: Solubility pH 7.0) |
| --- | --- | --- | --- | --- | --- | --- | --- | --- | --- | --- | --- | --- | --- | --- |
| CC[C@H](C)[C@H](NC(=O)[C@@H]1CCCN1C(=O)CNC(=O)[C@H](Cc1ccccc1)NC(=O)[C@H](CC(N)=O)NC(=O)[C@H](CC(N)=O)NC(=O)[C@H](CO)NC(=O)[C@H](CO)NC(=O)[C@H](Cc1c[nH]cn1)NC(=O)[C@H](CCCNC(=N)N)NC(=O)[C@H](CC(C)C)NC(=O)[C@H](Cc1ccccc1)NC(=O)[C@H](CCC(=O)O)NC(=O)[C@H](C)NC(=O)[C@H](CC(C)C)NC(=O)[C@H](CCCNC(=N)N)NC(=O)[C@H](CCC(N)=O)NC(=O)[C@@H](NC(=O)[C@H](C)NC(=O)[C@@H]1CSSC[C@H](NC(=O)[C@H](CCCCN)NC(=O)[C@H](Cc2c[nH]cn2)NC(=O)CC[C@H](NC(=O)CCCCCCCCCCCCCCCCCCC(=O)O)C(=O)O)C(=O)N[C@@H](CC(N)=O)C(=O)N[C@@H]([C@@H](C)O)C(=O)N[C@@H](C)C(=O)N[C@@H]([C@@H](C)O)C(=O)N1)[C@@H](C)O)C(=O)N[C@@H](CC(C)C)C(=O)N1CCC[C@H]1C(=O)N1CCC[C@H]1C(=O)N[C@H](C(=O)N[C@@H](CC(N)=O)C(=O)N[C@H](C(=O)NCC(=O)N[C@@H](CO)C(=O)N[C@@H](Cc1c[nH]cn1)C(=O)N[C@H](C(=O)N[C@@H](Cc1ccc(O)cc1)C(N)=O)[C@@H](C)O)C(C)C)[C@@H](C)O [Example 68, N-alpha-[(S)-4-Carboxy-4-(19-carboxynonadecanoylamino)butyryl]-His-[Glu14,Arg17,His35]-pramlintide] ({C20 diacid-γGlu}-HKCNTATCATQRLAEFLRHSSNNFGPILPPTNVGSHTY-NH2; disulfide 3-8 (inferred); C-terminus assumed) | >45 h | >45 h | > 200 µM | 170 µM (≈ 788 µg/mL) | 17 µM (≈ 78.8 µg/mL) | 6 µM (≈ 27.8 µg/mL) | 7 µM (≈ 32.4 µg/mL) | > 200 µM | > 200 µM | > 200 µM | > 200 µM | 0.43 nM | 0.0935 nM | – |
| CC[C@H](C)[C@H](NC(=O)[C@@H]1CCCN1C(=O)CNC(=O)[C@H](Cc1ccccc1)NC(=O)[C@H](CC(N)=O)NC(=O)[C@H](CC(N)=O)NC(=O)[C@H](CO)NC(=O)[C@H](CO)NC(=O)[C@H](Cc1c[nH]cn1)NC(=O)[C@H](CCCNC(=N)N)NC(=O)[C@H](CC(C)C)NC(=O)[C@H](Cc1ccccc1)NC(=O)[C@H](CCC(=O)O)NC(=O)[C@H](C)NC(=O)[C@H](CC(C)C)NC(=O)[C@H](CCCNC(=N)N)NC(=O)[C@H](CCC(N)=O)NC(=O)[C@@H](NC(=O)[C@H](C)NC(=O)[C@@H]1CSSC[C@H](NC(=O)[C@H](CCCCN)NC(=O)[C@H](Cc2c[nH]cn2)NC(=O)[C@H](Cc2c[nH]cn2)NC(=O)CC[C@H](NC(=O)CCCCCCCCCCCCCCCCCCC(=O)O)C(=O)O)C(=O)N[C@@H](CC(N)=O)C(=O)N[C@@H]([C@@H](C)O)C(=O)N[C@@H](C)C(=O)N[C@@H]([C@@H](C)O)C(=O)N1)[C@@H](C)O)C(=O)N[C@@H](CC(C)C)C(=O)N1CCC[C@H]1C(=O)N1CCC[C@H]1C(=O)N[C@H](C(=O)N[C@@H](CC(N)=O)C(=O)N[C@H](C(=O)NCC(=O)N[C@@H](CO)C(=O)N[C@@H](Cc1c[nH]cn1)C(=O)N[C@H](C(=O)N[C@@H](Cc1ccc(O)cc1)C(N)=O)[C@@H](C)O)C(C)C)[C@@H](C)O [Example 69, N-alpha-[(S)-4-Carboxy-4-(19-carboxynonadecanoylamino)butyryl]-His-His-[Glu14,Arg17,His35]-pramlintide] ({C20 diacid-γGlu}-HHKCNTATCATQRLAEFLRHSSNNFGPILPPTNVGSHTY-NH2; disulfide 4-9 (inferred)) | >45 h | >45 h | > 200 µM | 158 µM (≈ 754 µg/mL) | 6 µM (≈ 28.6 µg/mL) | 2 µM (≈ 9.54 µg/mL) | 24 µM (≈ 115 µg/mL) | > 200 µM | > 200 µM | > 200 µM | > 200 µM | 0.615 nM | 0.101 nM | – |
| CC[C@H](C)[C@H](NC(=O)[C@@H]1CCCN1C(=O)CNC(=O)[C@H](Cc1ccccc1)NC(=O)[C@H](CC(N)=O)NC(=O)[C@H](CC(N)=O)NC(=O)[C@H](CO)NC(=O)[C@H](CO)NC(=O)[C@H](Cc1c[nH]cn1)NC(=O)[C@H](Cc1c[nH]cn1)NC(=O)[C@H](CC(C)C)NC(=O)[C@H](Cc1ccccc1)NC(=O)[C@H](CCC(=O)O)NC(=O)[C@H](C)NC(=O)[C@H](CC(C)C)NC(=O)[C@H](CCCNC(=N)N)NC(=O)[C@H](CCC(N)=O)NC(=O)[C@@H](NC(=O)[C@H](C)NC(=O)[C@@H]1CSSC[C@H](NC(=O)[C@H](CCCCN)NC(=O)[C@H](Cc2c[nH]cn2)NC(=O)CC[C@H](NC(=O)CCCCCCCCCCCCCCCCC(=O)O)C(=O)O)C(=O)N[C@@H](CC(N)=O)C(=O)N[C@@H]([C@@H](C)O)C(=O)N[C@@H](C)C(=O)N[C@@H]([C@@H](C)O)C(=O)N1)[C@@H](C)O)C(=O)N[C@@H](CC(C)C)C(=O)N1CCC[C@H]1C(=O)N1CCC[C@H]1C(=O)N[C@H](C(=O)N[C@@H](CC(N)=O)C(=O)N[C@H](C(=O)NCC(=O)N[C@@H](CO)C(=O)N[C@@H](Cc1c[nH]cn1)C(=O)N[C@H](C(=O)N[C@@H](Cc1ccc(O)cc1)C(N)=O)[C@@H](C)O)C(C)C)[C@@H](C)O [Example 70, N-alpha-[(S)-4-Carboxy-4-(17-carboxyheptadecanoylamino)butyryl]-His-[Glu14,His17,His35]-pramlintide] ({C18 diacid-γGlu}-HKCNTATCATQRLAEFLHHSSNNFGPILPPTNVGSHTY-NH2; disulfide 3-8 (inferred); C-terminus assumed) | >45 h | >45 h | > 200 µM | 69 µM (≈ 317 µg/mL) | 32 µM (≈ 147 µg/mL) | 52 µM (≈ 239 µg/mL) | 89 µM (≈ 408 µg/mL) | > 200 µM | > 200 µM | > 200 µM | > 200 µM | 0.099 nM | 0.0585 nM | – |
| CC[C@H](C)[C@H](NC(=O)[C@H](CCCCNC(=O)COCCOCCNC(=O)COCCOCCNC(=O)CC[C@H](NC(=O)CCCCCCCCCCCCCCCCC(=O)O)C(=O)O)NC(=O)CNC(=O)[C@H](Cc1ccccc1)NC(=O)[C@H](CC(N)=O)NC(=O)[C@H](CO)NC(=O)[C@H](CO)NC(=O)[C@H](CO)NC(=O)[C@H](Cc1c[nH]cn1)NC(=O)[C@@H](NC(=O)[C@H](CC(C)C)NC(=O)[C@H](Cc1ccccc1)NC(=O)[C@H](CCC(=O)O)NC(=O)[C@H](C)NC(=O)[C@H](CC(C)C)NC(=O)[C@H](CCCNC(=N)N)NC(=O)[C@H](CCC(N)=O)NC(=O)[C@@H](NC(=O)[C@H](C)NC(=O)[C@@H]1CSSC[C@H](NC(=O)[C@@H](N)CCCCN)C(=O)N[C@@H](CC(N)=O)C(=O)N[C@@H]([C@@H](C)O)C(=O)N[C@@H](C)C(=O)N[C@@H]([C@@H](C)O)C(=O)N1)[C@@H](C)O)C(C)C)C(=O)N[C@@H](CC(C)C)C(=O)N1CCC[C@H]1C(=O)N1CCC[C@H]1C(=O)N[C@H](C(=O)N[C@@H](CC(N)=O)C(=O)N[C@H](C(=O)NCC(=O)N[C@@H](CO)C(=O)N[C@@H](CC(N)=O)C(=O)N[C@H](C(=O)N[C@@H](Cc1ccc(O)cc1)C(N)=O)[C@@H](C)O)C(C)C)[C@@H](C)O [Example 72, N-epsilon25-[2-(2-{2-[2-(2-{2-[(S)-4-Carboxy-4-(17-carboxyheptadecanoylamino)butyrylamino]ethoxy}ethoxy)acetylamino]ethoxy}ethoxy)acetyl]-[Glu14,Ser21,Lys25]-pramlintide] (H-KCNTATCATQRLAEFLVHSSSNFGK([AEEA-AEEA-γGlu-C18 diacid])ILPPTNVGSNTY-NH2; disulfide 2-7 (inferred); N-terminus assumed) | – | 10.3 h | 168 µM (≈ 787 µg/mL) | 130 µM (≈ 609 µg/mL) | 126 µM (≈ 590 µg/mL) | 165 µM (≈ 773 µg/mL) | > 200 µM | > 200 µM | > 200 µM | > 200 µM | > 200 µM | 0.101 nM | 0.089 nM | 126 µM (≈ 590 µg/mL) |
